Data as given in patent publication US20240100012A1, “PHARMACEUTICAL DOSAGE FORM” (priority 2021, published 2024).

What was measured:
[1] = Solubility of escitalopram base in organic solvents; type: physicochemical
[2] = Aqueous solubility of escitalopram base; type: physicochemical; conditions: crystalline and/or oil forms

## CN(C)CCC[C@@]1(c2ccc(F)cc2)OCc2cc(C#N)ccc21 [escitalopram base, S-1-[3-(dimethylamino)propyl]-1-(4-fluorophenyl)-1,3-dihydro-5-isobenzofurancarbonitrile]
[1]; crystalline or oil, organic solvents such as N-Methyl-2-pyrrolidone (NMP) and Dimethyl sulfoxide (DMSO)
  solubility in organic solvents: extremely high solubility
[1]; oil forms of escitalopram base, organic solvents
  escitalopram content of solutions that can be prepared in organic solvents: more than 70 % wt
[2]
  aqueous solubility: low aqueous solubility
